Read-outs that look alike come from different tables or passages of the source.
Assays:
PIM-1 = biological target: T1, PIM-1 (Homo sapiens, UniProt P11309); test: PIM-1 biochemical assay (ADP Hunter); settings: PIM1
T1 construct: histidine tag (C); made in house
Description: The biochemical assay to measure PIM-1 activity relies on the ADP Hunter assay kit (DiscoveRx Corp., Cat. #90-0077), that determines the amount of ADP as direct product of the kinase enzyme activity.
The enzyme has been expressed and purified in-house as a recombinant human protein with a C-terminal histidine tag. The protein is active and stable.
Assay conditions were as indicated by the kit manufacturers with the following adaptations for the kinase activity step: • Kinase assay buffer and assay volume stay as recommended (15 mM HEPES, pH 7.4, 20 mM NaCl, 1 mM EGTA, 0.02% Tween 20, 10 mM MgCl2 and 0.1 mg/ml bovine γ-globulins/75 μl assay volume) • Incubation time and temperature: 60 min at 30° C. • PIM-1 concentration: 50 pg/μl • ATP concentration: 100 μM • PIM-1 substrate peptide: PIMtide ([…]) (SEQIDNO. 1) • Peptide concentration: 60 μM • Positive control for kinase activity inhibition: 1-10 μM Staurosporine • DMSO concentration have to stay below 2% during the kinase reaction
Assays were performed in either 96 or 384-well plates. The final outcome of the coupled reactions provided by the kit is the release of the fluorescent product Resorufin and has been measured with a multilabel HTS counter VICTOR V (PerkinElmer) using an excitation filter at 544 nm and an emission filter at 580 nm.

PI3K (p110α/p85α) = biological target: T2, PI3K (p110α/p85α) (Homo sapiens, UniProt P42336); test: PI3K activity assay (ADP Hunter Plus); type: biochemical
T2 construct: purchased Carna Biosciences 07CBS-0402A
T2 sequence (P42336 whole entry): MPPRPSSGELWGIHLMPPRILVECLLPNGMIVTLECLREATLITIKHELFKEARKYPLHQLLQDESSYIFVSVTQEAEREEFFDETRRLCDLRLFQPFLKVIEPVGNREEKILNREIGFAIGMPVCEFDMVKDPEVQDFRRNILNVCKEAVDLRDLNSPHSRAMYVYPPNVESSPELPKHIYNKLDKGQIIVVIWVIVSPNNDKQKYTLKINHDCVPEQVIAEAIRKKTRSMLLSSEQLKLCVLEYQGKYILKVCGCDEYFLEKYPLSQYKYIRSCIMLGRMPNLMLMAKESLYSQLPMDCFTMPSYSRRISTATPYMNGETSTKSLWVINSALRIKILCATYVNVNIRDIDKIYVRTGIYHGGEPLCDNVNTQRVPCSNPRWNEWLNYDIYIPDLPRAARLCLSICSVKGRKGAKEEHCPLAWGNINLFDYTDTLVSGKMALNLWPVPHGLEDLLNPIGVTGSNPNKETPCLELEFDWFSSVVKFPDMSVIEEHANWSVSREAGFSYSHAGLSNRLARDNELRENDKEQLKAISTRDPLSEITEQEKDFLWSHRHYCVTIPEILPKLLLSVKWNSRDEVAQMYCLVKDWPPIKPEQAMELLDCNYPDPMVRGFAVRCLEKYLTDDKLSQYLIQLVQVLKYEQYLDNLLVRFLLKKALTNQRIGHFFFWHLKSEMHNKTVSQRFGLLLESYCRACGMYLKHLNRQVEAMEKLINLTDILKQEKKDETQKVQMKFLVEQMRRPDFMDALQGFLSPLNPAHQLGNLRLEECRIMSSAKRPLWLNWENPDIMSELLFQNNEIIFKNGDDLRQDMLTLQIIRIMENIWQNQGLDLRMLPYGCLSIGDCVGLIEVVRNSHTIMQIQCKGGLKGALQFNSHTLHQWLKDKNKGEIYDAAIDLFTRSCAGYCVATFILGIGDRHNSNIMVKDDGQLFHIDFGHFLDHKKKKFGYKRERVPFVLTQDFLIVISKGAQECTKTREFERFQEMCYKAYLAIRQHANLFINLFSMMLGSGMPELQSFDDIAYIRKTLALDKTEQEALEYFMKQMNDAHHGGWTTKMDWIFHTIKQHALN
T2 sequence (P27986 whole entry partner): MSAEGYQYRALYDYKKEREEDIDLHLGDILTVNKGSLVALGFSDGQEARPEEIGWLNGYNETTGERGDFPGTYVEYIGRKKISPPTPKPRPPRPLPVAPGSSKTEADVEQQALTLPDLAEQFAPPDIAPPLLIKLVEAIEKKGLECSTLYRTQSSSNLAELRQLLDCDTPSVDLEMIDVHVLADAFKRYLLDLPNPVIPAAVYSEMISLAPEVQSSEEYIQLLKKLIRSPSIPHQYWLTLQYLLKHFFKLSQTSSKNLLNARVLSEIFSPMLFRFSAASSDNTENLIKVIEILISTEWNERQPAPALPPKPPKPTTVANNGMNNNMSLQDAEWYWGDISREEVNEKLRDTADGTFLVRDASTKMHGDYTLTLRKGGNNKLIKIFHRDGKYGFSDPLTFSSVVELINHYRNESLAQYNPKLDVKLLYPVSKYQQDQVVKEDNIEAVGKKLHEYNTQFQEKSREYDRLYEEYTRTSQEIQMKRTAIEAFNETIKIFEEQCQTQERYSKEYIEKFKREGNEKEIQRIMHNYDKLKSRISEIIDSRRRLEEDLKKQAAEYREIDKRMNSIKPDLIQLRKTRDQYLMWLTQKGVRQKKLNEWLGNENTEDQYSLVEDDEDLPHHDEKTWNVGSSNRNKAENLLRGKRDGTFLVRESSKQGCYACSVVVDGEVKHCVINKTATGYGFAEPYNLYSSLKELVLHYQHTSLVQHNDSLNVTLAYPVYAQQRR
Experimental: The kinase activity was measured by using the commercial ADP Hunter™ Plus assay available from DiscoveRx (#33-016), which is a homogeneous assay to measure the accumulation of ADP, a universal product of kinase activity. […] Reaction was carried out for 1 hour at 25° C. Reagent A and B were sequentially added to the wells and plates were incubated for 30 min at 37° C. Fluorescence counts were read in a Victor instrument (Perkin Elmer) with the recommended settings (544 and 580 nm as excitation and emission wavelengths, respectively). Values were normalized against the control activity included for each enzyme (i.e., 100% PI3 kinase activity, without compound). These values were plotted against the inhibitor concentration and were fit to a sigmoid dose-response curve by using the Graphad software.

mTOR = biological target: T3, mTOR (Homo sapiens, UniProt P42345); test: mTOR assay (LanthaScreen kinase activity assay); type: biochemical
T3 construct: purchased Invitrogen PV4754
T3 sequence (P42345 1360-2549 limits assumed): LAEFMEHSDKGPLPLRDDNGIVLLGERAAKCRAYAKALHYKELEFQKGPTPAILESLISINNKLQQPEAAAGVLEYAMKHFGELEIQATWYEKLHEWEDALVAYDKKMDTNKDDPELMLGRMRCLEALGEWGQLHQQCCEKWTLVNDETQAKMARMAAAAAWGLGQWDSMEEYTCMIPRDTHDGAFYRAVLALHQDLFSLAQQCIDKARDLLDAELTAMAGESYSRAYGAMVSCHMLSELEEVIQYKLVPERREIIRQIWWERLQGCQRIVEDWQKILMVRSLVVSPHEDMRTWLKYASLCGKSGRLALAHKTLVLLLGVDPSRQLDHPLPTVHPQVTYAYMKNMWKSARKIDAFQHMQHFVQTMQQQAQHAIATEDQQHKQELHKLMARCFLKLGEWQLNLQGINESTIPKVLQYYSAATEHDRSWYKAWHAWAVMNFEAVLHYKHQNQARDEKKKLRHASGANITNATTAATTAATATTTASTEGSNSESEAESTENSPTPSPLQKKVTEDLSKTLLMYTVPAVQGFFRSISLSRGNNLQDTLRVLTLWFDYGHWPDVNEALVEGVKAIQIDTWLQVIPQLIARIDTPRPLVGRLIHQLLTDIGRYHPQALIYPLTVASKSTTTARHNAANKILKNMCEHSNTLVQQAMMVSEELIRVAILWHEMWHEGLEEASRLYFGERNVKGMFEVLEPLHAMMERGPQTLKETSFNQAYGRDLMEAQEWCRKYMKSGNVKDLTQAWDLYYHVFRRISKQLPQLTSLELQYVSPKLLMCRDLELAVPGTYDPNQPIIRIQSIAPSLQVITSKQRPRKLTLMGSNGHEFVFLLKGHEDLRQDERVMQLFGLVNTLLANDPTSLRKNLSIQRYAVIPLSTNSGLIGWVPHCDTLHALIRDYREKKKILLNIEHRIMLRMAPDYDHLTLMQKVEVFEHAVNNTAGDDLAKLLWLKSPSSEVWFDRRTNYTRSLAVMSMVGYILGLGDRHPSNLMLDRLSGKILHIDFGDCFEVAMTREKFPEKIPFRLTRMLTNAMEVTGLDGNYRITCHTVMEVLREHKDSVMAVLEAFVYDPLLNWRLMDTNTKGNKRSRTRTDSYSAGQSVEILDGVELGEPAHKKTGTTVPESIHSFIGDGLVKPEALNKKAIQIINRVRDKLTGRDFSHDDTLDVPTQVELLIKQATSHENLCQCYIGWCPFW
Experimental: The enzymatic mTOR activity was measured using a LanthaScreen™ kinase activity assay (Invitrogen). The enzyme was purchased from Invitrogen (PV4754), as well as the GFP-labeled substrate (4EBP1-GFP; PV4759) and the Tb-anti-p4EBP1(pThr46) antibody (PV4757). The assay was performed in 50 mM HEPES buffer, pH 7.5, containing 1.5 mM MnCl2, 10 mM MgCl2, 1 mM EGTA, 2.5 mM DTT and 0.01% Tween-20. The concentration of the assay components were the following: 0.24 nM mTOR kinase, 400 nM 4EBP1-GFP, […] and serial dilutions of the compound (inhibitor) to be evaluated. After 1 h incubation at room temperature, 20 mM EDTA was used to stop the reaction and terbium-labeled antibody (4 nM) added to detect phosphorylated product. The antibody associates with the phosphorylated product resulting in an increased TR-FRET value. The TR-FRET value (a dimensionless number) was calculated as the ratio of the acceptor signal (GFP, emission at 520 nm) to the donor signal (terbium, emission at 495 nm). Values were plotted against the inhibitor concentration and fitted to a sigmoid dose-response curve using GraphPad software.

[1] = read-out: PIM-1 activity, IC50 (semi-quantitative class)
[2] = read-out: PI3K alpha activity, IC50 (semi-quantitative class)
[3] = read-out: PI3K alpha actual IC50 (in parentheses)
[4] = read-out: mTOR activity, IC50 (semi-quantitative class)
[5] = read-out: mTOR actual IC50 (in parentheses)
[6] = read-out: PIM-1 actual IC50 (in parentheses)

T1 sequence (P11309 whole entry): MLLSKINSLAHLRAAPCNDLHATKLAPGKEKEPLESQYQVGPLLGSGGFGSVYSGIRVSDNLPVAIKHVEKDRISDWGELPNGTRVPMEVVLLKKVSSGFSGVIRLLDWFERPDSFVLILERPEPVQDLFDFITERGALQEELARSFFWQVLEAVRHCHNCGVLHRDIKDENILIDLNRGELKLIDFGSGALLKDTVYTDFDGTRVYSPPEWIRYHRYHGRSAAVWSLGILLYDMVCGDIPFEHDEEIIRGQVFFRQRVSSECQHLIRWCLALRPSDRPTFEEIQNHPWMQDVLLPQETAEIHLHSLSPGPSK

Compound	IC50 (PIM-1; [1]) [nM]	IC50 (PI3K (p110α/p85α); [2]) [nM]	IC50 (PI3K (p110α/p85α); [3]) [nM]	IC50 (mTOR; [4]) [nM]	IC50 (mTOR; [5]) [nM]	IC50 (PIM-1; [6]) [nM]
COc1ncc2cc1NS(=O)(=O)c1cccc(c1)C(=O)NCc1cncc(c1)-c1cnc3ccc-2cn13 [compound 30]	> 1000	< 100	11	< 100	49	
COc1ncc2cc1NS(=O)(=O)c1cccc(c1)C(=O)NCC1CCN(CC1)c1ncnc3ccc-2cc13 [compound 32]	> 1000	< 100	2	< 100	5	
COc1ncc2cc1NS(=O)(=O)c1cccc(c1)C(=O)NCCn1cc(cn1)-c1cnc3ccc-2cn13 [compound 34]	> 1000	< 100	7.6	< 100	66	
COc1ncc2cc1NS(=O)(=O)c1cccc(c1)C(=O)NCc1cccc(c1)-c1ccnc3ccc-2nc13 [compound 35]	> 1000	< 100	5	< 100	16	
COc1ncc2cc1NS(=O)(=O)c1cccc(c1)C(=O)NCCn1cc(cn1)-c1ncnc3c1SC2=C3 [compound 36]	100 to 1000	100 to 1000		> 1000		
COc1ncc2cc1NS(=O)(=O)c1cccc(c1)C(=O)NCc1cccc(c1)-c1ncnc3sc-2cc13 [compound 37]	> 1000	< 100	20	> 1000		
COc1ncc2cc1NS(=O)(=O)c1cccc(c1)C(=O)NCC1CCN(CC1)c1ncnc3cc-2sc13 [compound 38]	> 1000	> 1000		> 1000		
COc1ncc2cc1NS(=O)(=O)c1cccc(c1)C(=O)NCCN1CC=C(CC1)c1cnc3ccc-2cn13 [compound 40]	> 1000	< 100	3	< 100	36	
COc1ncc2cc1NS(=O)(=O)c1cccc(c1)C(=O)NCc1cncc(c1)-c1ncnc3ccc-2cc13 [compound 41]	> 1000	< 100	3	< 100	16	
COc1ncc2cc1NS(=O)(=O)c1cccc(c1)C(=O)NCc1cc(ccn1)-c1ncnc3c1SC2=C3 [compound 42]	100 to 1000	100 to 1000		> 1000		
O=C1NCc2cc(ccn2)-c2ncnc3c2SC(=C3)c2cncc(c2)NS(=O)(=O)c2cccc1c2 [compound 43]	< 100	< 100	44	> 1000		41
COc1ncc2cc1NS(=O)(=O)c1cc(c(F)cc1F)C(=O)NCc1cncc(c1)-c1ncnc3c1SC2=C3 [compound 44]	> 1000	100 to 1000		> 1000		
O=C1NCc2cncc(c2)-c2ncnc3c2SC(=C3)c2cnc(O)c(c2)NS(=O)(=O)c2cccc1c2 [compound 45]	100 to 1000	> 1000		> 1000		
COc1ncc2cc1N(C)S(=O)(=O)c1cccc(c1)C(=O)NCc1cncc(c1)-c1ncnc3c1SC2=C3 [compound 46]	> 1000	> 1000		> 1000		
COc1ncc2cc1NS(=O)(=O)c1cccc(c1)C(=O)Nc1cncc(c1)-c1ncnc3c1SC2=C3 [compound 47]	> 1000	< 100	99	< 100	8.5	
COc1ncc2cc1NS(=O)(=O)c1ccc(F)c(c1)C(=O)NCc1cncc(c1)-c1ncnc3c1SC2=C3 [compound 48]	< 100	< 100	48	> 1000		52
O=C1NCc2cncc(c2)-c2ccnc3ccc(cc23)-c2cncc(c2)NS(=O)(=O)c2cccc1c2 [compound 49]	> 1000	< 100	68	100 to 1000		
CC(C)Oc1ncc2cc1NS(=O)(=O)c1cccc(c1)C(=O)NCc1cncc(c1)-c1ncnc3c1SC2=C3 [compound 50]	> 1000	> 1000		> 1000		
COc1ncc2cc1NS(=O)(=O)c1cccc(c1)C(=O)NCCn1cc(cn1)-c1ncnc3c1OC2=C3 [compound 51]	> 1000	100 to 1000		> 1000		
COc1ncc2cc1NS(=O)(=O)c1cc(ccc1F)C(=O)NCc1cncc(c1)-c1ncnc3c1SC2=C3 [compound 52]	100 to 1000	100 to 1000		> 1000		
COc1ncc2cc1NS(=O)(=O)c1cc(cc(C(F)(F)F)c1)C(=O)NCc1cncc(c1)-c1ncnc3c1SC2=C3 [compound 53]	> 1000	> 1000		> 1000		
COc1ncc2cc1NS(=O)(=O)c1cccc(c1)C(=O)NCc1cncc(c1)-c1nc(C)nc3c1SC2=C3 [compound 54]	> 1000	100 to 1000		> 1000		
COc1ncc2cc1NS(=O)(=O)c1cccc(c1)C(=O)NCC1=CC=C(S1)c1ncnc3c1SC2=C3 [compound 55]	< 100	100 to 1000		> 1000		12
COc1ncc2cc1NS(=O)(=O)c1cccc(c1)C(=O)NCc1cncc(c1)-c1ncnc3c1SC2=C3C [compound 56]	< 100	< 100	13	100 to 1000		56
COc1ncc2cc1NS(=O)(=O)c1cccc(c1)C(=O)NCCn1cc(cn1)-c1ncnc3c1SC2=C3C [compound 57]	100 to 1000	< 100	0.8	100 to 1000		
O=C1NCc2cncc(c2)-c2ncnc3c2SC(=C3)c2cnc(Cl)c(c2)NS(=O)(=O)c2cccc1c2 [compound 58]	100 to 1000	< 100	3.6	> 1000		
CC(C)Oc1ncc2cc1NS(=O)(=O)c1cccc(c1)C(=O)NCCn1cc(cn1)-c1ncnc3c1SC2=C3 [compound 59]	> 1000	> 1000		> 1000		
COc1ncc2cc1NS(=O)(=O)c1cccc(c1)C(=O)NCc1cncc(c1)-c1nc(C(C)C)nc3c1SC2=C3 [compound 60]	> 1000	> 1000		> 1000		
